From patent US7183267B2, “β-lactamase inhibitors and methods of use thereof” (priority 2003, dated 2007)

Experiments:
Assay type in all cases: biochemical
β-lactamase mutant R244S = β-lactamase mutant R244S (Escherichia coli, UniProt P62593, R241S); settings: number higher than 1 reflects a loss of potency against mutant
β-lactamase mutant M69I = β-lactamase mutant M69I (Escherichia coli, UniProt P62593, M67I); settings: number higher than 1 reflects a loss of potency against mutant
β-lactamase mutant E104K = β-lactamase mutant E104K (Escherichia coli, UniProt P62593, E102K); settings: number higher than 1 reflects a loss of potency against mutant
AmpC β-lactamase = target: T1, AmpC β-lactamase (Escherichia coli, UniProt P00811); test: AmpC β-lactamase competitive inhibition assay (nitrocefin hydrolysis)
T1 construct: made in house; host or cells: E. coli BL21 (DE3)
Protocol: The gene for AmpC β-lactamase (accession number P00811) was obtained from Escherichia coli K12 strain W3110 (American Type Culture Collection, Rockville Md.). E. coli was grown and plasmid (F-lacIq lacPL8 ampC::lambdacI+) was isolated via Qiagen (Valencia, Calif.) mini prep. The gene for AmpC was amplified in two pieces via polymerase chain reaction, ligated and purified by agarose gel electrophoresis. The ligated gene was inserted into a pET200 vector via a TOPO reaction (Invitrogen, Carlsbad, Calif.).
BL21 (DE3) (Invitrogen) cells were transformed by heat-shock with the prepared plasmid. These cells were grown to an OD600 of 0.8 at 37° C. Isopropylthiogalactoside (IPTG) was added to 1 mM, incubation temperature decreased to 25° C. and the cells were grown for an additional 18 hours. After 18 hours, the E. coli was pelleted by centrifugation, and discarded. The growth media was concentrated and dialyzed versus 100 mM Tris, pH 7.0. This solution was run through an equilibrated Q-resin column, and washed with excess 100 mM Tris, pH 7.0.
The competitive inhibition of β-lactamase was determined spectrophotometrically using a Varian (Walnut Creek, Calif.) Cary 100 UV-Visible spectrophotometer. β-lactamase activity was followed by measuring the hydrolysis of nitrocefin, [3-(2,4-dinitrostyryl)-(6R, 7R)-7-(2-thienylacetamido)-ceph-3-em-4-carboxylic acid, E-isomer], (Calbiochem, San Diego, Calif.) at 486 nm. Inhibition assays were performed at 25° C. in 50 mM sodium phosphate, 5% DMSO, pH 7.0. […] Penicillin G (Sigma, St. Louis, Mo.) was also used as a substrate to determine KM and kcat.
Inhibitor was added to protein and incubated for ten minutes before the addition of substrate. Inhibition constants were determined by measuring the loss of P-lactamase activity with increasing inhibitor concentrations and fitting the data to standard equations for competitive inhibition.

TEM-1 β-lactamase = TEM-1 β-lactamase (Escherichia coli, UniProt P62593); test: TEM-1 β-lactamase inhibition assay (nitrocefin hydrolysis, 486 nm); settings: Ki, 25° C., 50 mM sodium phosphate, 5% DMSO, pH 7.0; enzyme 5 nM, nitrocefin 167 μM
Procedure, shortened: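 TEM-1 activity followed by nitrocefin hydrolysis at 486 nm, 25 °C, 50 mM sodium phosphate pH 7.0, 5% DMSO; inhibitor preincubated with enzyme 10 min before substrate. Ki obtained from rates at increasing inhibitor concentrations fitted to competitive-inhibition equations; penicillin G also used as substrate for KM and kcat.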

For O=C(OCc1ccccc1)c1cc(B(O)O)cc([N+](=O)[O-])c1 [Compound F1201], the “Loss of potency: ratio of the inhibitory constant between mutant and wild type (Potencywt/Potencymutant), R244S” value (β-lactamase mutant R244S) was 0.86, the “Loss of potency: ratio of the inhibitory constant between mutant and wild type (Potencywt/Potencymutant), M69I” value (β-lactamase mutant M69I) was 0.52 and the “Loss of potency: ratio of the inhibitory constant between mutant and wild type (Potencywt/Potencymutant), E104K” value (β-lactamase mutant E104K) was 0.48. The Ki (AmpC β-lactamase) was 4.45 µM and the Ki (TEM-1 β-lactamase) was 27 µM.
